Reference: article PMC6691761, “Potential multifunctional agents with anti-hepatoma and anti-inflammation properties by inhibiting NF-кB activation” (Journal of Enzyme Inhibition and Medicinal Chemistry, 2019)

What was measured:
[1] = tested on: human lung carcinoma cells (A549); experiment: Cytotoxicity, MTT assay, A549; assay type: cell-based; conditions: for IC50: MTT, 24 h; for A549 SI (selectivity index): quotient of IC50 towards LO2 cells
Description: (§1) Compounds 83–102 were screened against human neoplastic cell lines, such as human breast cancer cells (MCF-7), human colon cancer cells (HCT116), human lung carcinoma cells (A549), human gastric adenocarcinoma cells (SGC7901), human liver hepatocellular carcinoma cell line (HepG2), human cervical carcinoma cells (HeLa), human acute mononuclear granulocyte leukaemia (THP-1), and human normal hepatic cell line (LO2) using modified MTT assay. All the cells were obtained from the American Type Culture Collection (ATCC, Manassas, VA). The cells were cultured in DMEM or 1640. Positive controls (Doxorubicin (DOX) and Curcumin) and BAPs were initially dissolved in dimethyl sulphoxide (DMSO). Experimental concentration of DMSO was always 0.1% (v/v). The concentrations of BAPs and positive controls were 50, 20, 10, 5, 2.5, 1, 0.5, 0.1, 0.05, and 0.01 μg/mL.
(§2) The cells (1 × 10^4 cells/well) were seeded in a 96-well plate and incubated for 24 h. Cells treated with serial concentrations of drugs were incubated for another 24 h. After the media removed, 20 μL of MTT (5 mg/mL) solution was added and incubated for 4 h at 37 °C. The MTT solution was removed and then 150 μL of DMSO was added. The optical density was measured with a multi-well plate reader (TECAN, Mӓnnedorf, Switzerland) at 570 nm. The results are expressed as a decrease in the cell viability (%) in comparison to untreated controls. The concentration of each compound was examined in triplicate, and the IC50 values are expressed in Table 1.

[2] = tested on: human normal hepatic cell line (LO2); experiment: Toxicity to normal cells, MTT assay, LO2; assay type: cell-based; conditions: 24 h
Description: as §1, §2

[3] = tested on: human cervical carcinoma cells (HeLa); experiment: Cytotoxicity, MTT assay, HeLa; assay type: cell-based; conditions: for IC50: MTT, 24 h; for HeLa SI (selectivity index): quotient of IC50 towards LO2 cells
Description: as §1, §2

[4] = tested on: human colon cancer cells (HCT116); experiment: Cytotoxicity, MTT assay, HCT116; assay type: cell-based; conditions: for IC50: MTT, 24 h; for HCT116 SI (selectivity index): quotient of IC50 towards LO2 cells
Description: as §1, §2

[5] = tested on: human liver hepatocellular carcinoma cell line (HepG2); experiment: Cytotoxicity, MTT assay, HepG2; assay type: cell-based; conditions: for IC50: MTT, 24 h; for HepG2 SI (selectivity index): quotient of IC50 towards LO2 cells
Description: as §1, §2

[6] = tested on: human acute mononuclear granulocyte leukaemia (THP-1); experiment: Cytotoxicity, MTT assay, THP-1; assay type: cell-based; conditions: for IC50: MTT, 24 h; for THP-1 SI (selectivity index): quotient of IC50 towards LO2 cells
Description: as §1, §2

[7] = tested on: TNF-α production in LPS-stimulated RAW264.7 cells; experiment: TNF-α production in LPS-stimulated RAW264.7 cells, ELISA; assay type: cell-based
Procedure: The anti-inflammatory activities of BAPs were evaluated by ELISA. After pretreated with 30 μM of positive drug pyrrolidinedithiocarbamate (PDTC) or 6 μM of BAPs for 2 h, cells were treated with LPS (1.0 μg/mL) for 22 h. The culture media were collected and centrifuged for detecting the expression levels of TNF-α by an ELISA kit (eBioScience, San Diego, CA).
TNF-α is a common pro-inflammatory factors that can be produced by LPS-stimulated RAW264.7 macrophage[14]^,[24]. In order to evaluate the anti-inflammatory activity of BAPs, the effect of BAPs on TNF-α production in LPS-stimulated RAW264.7 cells was detected by ELISA. […] Only 92 presented slightly lower expression of TNF-α secretion (about 57%).

[8] = tested on: human breast cancer cells (MCF-7); experiment: Cytotoxicity, MTT assay, MCF-7; assay type: cell-based; conditions: for IC50: MTT, 24 h; for MCF-7 SI (selectivity index): quotient of IC50 towards LO2 cells
Description: as §1, §2

[9] = tested on: human gastric adenocarcinoma cells (SGC7901); experiment: Cytotoxicity, MTT assay, SGC7901; assay type: cell-based; conditions: for IC50: MTT, 24 h; for SGC7901 SI (selectivity index): quotient of IC50 towards LO2 cells
Description: as §1, §2

HepG2 xenografts [10] = experiment: HepG2 xenografts growth in nude mice; assay type: in vivo, Balb/c nude mice; conditions: 1.0 mg/kg intraperitoneally every 2 d for 20 days
Procedure: (§3) The HepG2 cells xenografts were established using the Balb/c nude mice (female, 7-week-old, 17–19 g, n = 30) (Shanghai Laboratory Animal Center, Shanghai Shi, China) were used to investigate the anti-hepatoma effect of 96. Animal experiments were reviewed and approved by the Binzhou Medical University Experimental Animal Committee. Briefly, HepG2 cells (1 × 10^7/0.2 ml PBS/mouse) were inoculated subcutaneously. Three days after the inoculation, the mice were randomly divided into five groups: the saline treated group (Control), 96 (0.2 mg/kg) group, 96 (1.0 mg/kg) treated group, 96 (5.0 mg/kg) treated group, and DOX (1.0 mg/kg) treated group. 96 were dissolved in saline containing 1% of DMSO and administered intraperitoneally every 2 d for 20 days. DOX was also administered intraperitoneally every 2 d for 20 d. The body weight and HepG2 xenografts volumes were recorded from the day of treatment, and xenografts volumes were calculated using the equation: tumour volume = length×(width)[2]×π/6. At the end of the experiment, mice were sacrificed and the xenografts were obtained for western blotting, HE staining and immunohistochemistry staining.

[11] = tested on: TNF-α expression in HepG2 xenografts; experiment: Immunohistochemistry staining of TNF-α in HepG2 xenografts; assay type: in vivo, Balb/c nude mice; conditions: 96 5.0 mg/kg, DOX 1.0 mg/kg, versus model group
Procedure: as §3
(§4) The HepG2 xenografts tissues were embedded using the paraffin, and sectioned for HE staining and immunohistochemistry staining. HE staining was performed routinely. The immunohistochemistry staining carried out as following. […]

[12] = tested on: Bcl-2 expression in HepG2 xenografts; experiment: Immunohistochemistry staining of Bcl-2 in HepG2 xenografts; assay type: in vivo, Balb/c nude mice; conditions: 96 5.0 mg/kg, DOX 1.0 mg/kg, versus model group
Procedure: as §3, §4

HepG2 xenografts [13] = experiment: HE staining of HepG2 xenografts; assay type: in vivo, Balb/c nude mice
Procedure: as §3
The HepG2 xenografts tissues were embedded using the paraffin, and sectioned for HE staining and immunohistochemistry staining. HE staining was performed routinely. The immunohistochemistry staining carried out as following. Briefly, the processed sections were incubated with the primary antibodies: Bcl-2 and TNF-α (NOVUS BIOLOGICALS) at 4 °C overnight. After washing, the anti-rabbit peroxidase-conjugated secondary antibody (Sigma-Aldrich, St. Louis, MO) was incubated for 1 h at RT. After washing with PBS, the cells were visualized using the 3,3'-diaminobenzidine (DAB) solution under the light microscope. The cell images were taken using a light microscopy (Olympus, Tokyo, Japan).

[14] = BAPs 6.0 μM, PDTC 30 μM, LPS 1.0 μg/mL

Structure (SMILES) | IC50 [1] [µM] | A549 SI (selectivity index) [1] | IC50 [2] [µM] | IC50 [3] [µM] | HeLa SI (selectivity index) [3] | IC50 [4] [µM] | HCT116 SI (selectivity index) [4] | IC50 [5] [µM] | HepG2 SI (selectivity index) [5] | IC50 [6] [µM] | THP-1 SI (selectivity index) [6] | TNF-α secretion [7, 14] [%] | IC50 [8] [µM] | MCF-7 SI (selectivity index) [8] | IC50 [9] [µM] | SGC7901 SI (selectivity index) [9] | other results
CN1CC(=Cc2cccc(N=Cc3cc([N+](=O)[O-])ccc3F)c2)C(=O)C(=Cc2ccccc2F)C1 [Compound 97] | 5.7 ± 0.4 | 2.1 | 11.8 ± 0.4 | 5.1 ± 1.2 | 2.3 | 11.7 ± 0.2 | 1.0 | 4.2 ± 0.5 | 2.8 | 8.1 ± 0.4 | 1.5 | 45 | 10.7 ± 0.1 | 1.1 | 3.4 ± 0.8 | 3.5 | 
CN1CC(=Cc2cccc(N=Cc3cc(F)ccc3O)c2)C(=O)C(=Cc2ccccc2F)C1 [Compound 93] | 3.7 ± 0.1 | 4.1 | 15.1 ± 0.7 | 3 ± 0.1 | 5.0 | 2.5 ± 1.8 | 6.0 | 2.2 ± 0.2 | 6.9 | 2.4 ± 0.5 | 6.3 | 45 | 3.8 ± 0.9 | 4.0 | 2.8 ± 0.5 | 5.4 | Inhibition of TNF-α secretion compared with PDTC (in words) [7, 14]: superior to PDTC group
CN1C/C(=C\c2cccc(N)c2)C(=O)/C(=C/c2ccccc2F)C1 [Compound 92, (3E,5E)-3-(3-aminobenzylidene)-5-(2-fluorobenzylidene)-1-methylpiperidin-4-one] |  | 8.6 |  |  |  |  |  |  |  |  |  |  |  | 6.8 |  | 6.8 | IC50 ([1]; Homo sapiens, A549, 24 h): 2.2 ± 0.1 µM; IC50 ([2]; Homo sapiens): 18.9 ± 0.7 µM; IC50 ([3]; Homo sapiens, HeLa): 2.5 ± 0.2 µM; IC50 ([4]; Homo sapiens, HCT-116): 3.1 ± 0.3 µM; IC50 ([5]; Homo sapiens, HepG2, 24 h): 1.1 ± 0.1 µM; IC50 ([6]; Homo sapiens, THP-1, 24 h): 1.2 ± 0.2 µM; TNF-α secretion (percent of LPS control) ([7]; 6.0 μM, 2 h pretreatment, LPS 1.0 μg/mL 22 h, ELISA): about 57%; IC50 ([8]; Homo sapiens, MCF7): 2.8 ± 0.3 µM; IC50 ([9]; Homo sapiens, SGC-7901): 2.8 ± 0.2 µM
COc1cccc2c1C(=O)c1c(O)c3c(c(O)c1C2=O)C[C@@](O)(C(=O)CO)C[C@@H]3O[C@H]1C[C@H](N)[C@H](O)[C@H](C)O1 [DOX, Doxorubicin, reference compound] |  | 1.4 |  |  | 0.7 |  | 1.3 |  | 3.9 |  | 0.5 |  |  | 1.7 |  | 1.4 | Growth of HepG2 xenografts (HepG2 xenografts [10]): significantly inhibited the growth of HepG2 xenografts; IC50 ([1]; Homo sapiens, A549, 24 h): 3.4 ± 0.4 µM; IC50 ([2]; Homo sapiens): 4.7 ± 0.7 µM; IC50 ([3]; Homo sapiens, HeLa): 7 ± 0.3 µM; TNF-α expression, immunohistochemistry [11]: significantly reduced; Bcl-2 expression, immunohistochemistry [12]: significantly reduced; IC50 ([4]; Homo sapiens, HCT-116): 3.5 ± 0.1 µM; Fracted cells, HE staining (HepG2 xenografts [13]; 96 5.0 mg/kg, DOX 1.0 mg/kg): a plenty of fracted cells; Histopathological change of cell nucleus, HE staining (HepG2 xenografts [13]; HepG2 xenografts, versus model group): made the HepG2 cell nucleus wrinkled; IC50 ([5]; Homo sapiens, HepG2, 24 h): 1.2 ± 0.1 µM; IC50 ([6]; Homo sapiens, THP-1, 24 h): 9.5 ± 0.8 µM; IC50 ([8]; Homo sapiens, MCF7): 2.8 ± 0.7 µM; IC50 ([9]; Homo sapiens, SGC-7901): 3.3 ± 0.5 µM
COc1ccccc1/C=C1\CN(C)C/C(=C\c2cc(OC)c(OC)c(OC)c2)C1=O [Compound 89] | 4.9 ± 0.1 | 2.8 | 13.6 ± 0.1 | 5.3 ± 0.4 | 2.6 | 5.6 ± 0.1 | 2.4 | 4.3 ± 0.1 | 3.2 | 7.9 ± 0.3 | 1.7 |  | 9.7 ± 0.4 | 1.4 | 3.3 ± 0.3 | 4.1 | 
CN1CC(=Cc2cccc(N=Cc3ccc(O)c(O)c3O)c2)C(=O)C(=Cc2ccccc2F)C1 [Compound 100] | 1.9 ± 0.2 | 10.4 | 19.8 ± 0.3 | 11.9 ± 0.2 | 1.7 | 11.9 ± 0.1 | 1.7 | 8.8 ± 0.4 | 2.3 | 7.7 ± 0.1 | 2.6 | 45 | 7.7 ± 0.2 | 2.6 | 3.6 ± 0.1 | 5.5 | 
CN1CC(=Cc2cccc(N=Cc3ccc(Cl)c(Cl)c3)c2)C(=O)C(=Cc2ccccc2F)C1 [Compound 95] | 3.1 ± 0.2 | 3.5 | 11 ± 0.4 | 4.3 ± 0.1 | 2.6 | 6.3 ± 0.2 | 1.7 | 2.5 ± 0.1 | 4.4 | 3.8 ± 0.1 | 2.9 |  | 5.4 ± 0.2 | 2.0 | 3.3 ± 0.5 | 3.3 | 
